Reference: patent publication US11725036B2, “Modified lipidated relaxin B chain peptides and their therapeutic use” (Sanofi, priority 2018, dated 2023)
Values after ≈ are worked out from the molar mass of the structure shown. Read-outs that look alike come from different tables or passages of the source. Starred links: 1 amine or outer side, 2 acyl side, 3 side chain; linkers in the order of their positions; H or OH if unused. Non-standard residues stand in square brackets, D forms with d. Residues, ends and D or L forms follow the SMILES beside them. Groups on a side chain read outwards from the residue. *: point of attachment. X1 = CCCCCCCCCCCCCCCC(=O)N[C@@H](CCC(=O)N[C@@H](CCC(=O)N[C@@H](CCC(=O)NCCCOCCOCCOCCCNC(=O)CCC(=O)NCCCOCCOCCOCCCNC(=O)CCC(=O)NCCCOCCOCCOCCCN*)C(=O)O)C(=O)O)C(=O)O; X2 = CCCCCCCCCCCCCCCC(=O)N[C@@H](CCC(=O)N[C@@H](CCC(=O)N[C@@H](CCC(=O)NCCCOCCOCCOCCCNC(=O)CCC(=O)NCCCOCCOCCOCCCN*)C(=O)O)C(=O)O)C(=O)O; γGlu = O=C(O)[C@H](CCC(=O)[*:2])N[*:1]; Stearoyl = CCCCCCCCCCCCCCCCCC(=O)*; Suc = O=C(CCC(=O)[*:2])[*:1]; αMeK = C[C@](N)(CCCCN)C(=O)O; AEEA = NCCOCCOCC(=O)O; Aib = CC(C)(N)C(=O)O

Tests used:
[1] = Solubility testing in buffer; format: physicochemical; conditions: target solubility 10.0 mg/ml
Experimental: Prior to the testing of solubility of a peptide batch, its purity (HPLC-UV) was determined.
Acetate Buffer 50 mM pH4.5: 0.75 g C2H3C02Na,3H2O (Sigma S7545)+0.35 ml CH3CO2H 100% solution dissolved in Millipore water, adjusted to pH with diluted (1:1) CH3CO2H and diluted to 250 ml with Millipore water.
In a 4 ml Ependorph vial, an accurately weighed sample of compound was diluted in study media to obtain target concentration of 2, 6 or 10 mg/ml of pure compound. The sample vials were shacked (rock 'roll shaker) for ˜19 h. 300 μL aliquots were filtered through a Millipore “Solvinert” plate (0.45 μm-PTFE hydrophilic).
pH was measured with a micro electrode
Waters Acquity UPLC System with DAD detector
Column: Waters Peptide Column CSH C18 (130 Å; 1.7 μm; 50*2.1 mm)
Column temperature: 60° C.
Full loop (about 5 μL)—overfill factor 5
Weak et Strong wash: H2O/ACN (75/25; V/V); Seal wash: H2O/IsOH (95/5; V/V). Mobile phase:
Solvent A: 0.05% TFA in H2O; Solvent B: 0.035% TFA in CH3CN
Gradient: from 0 to 12 min B=2% to 60%, from 12 to 14 min B=60% to 100%. Column washing 100% B 1 min, column equilibration 2% B 2.5 min.
UV detector: wavelength: 220 nm.

RXFP1 = target: T1, RXFP1 (Homo sapiens, UniProt Q9HBX9); experiment: OVCAR5 cAMP assay (HTRF); format: cell-based; conditions: for EC50: OVCAR 5 cells expressing endogenous RXFP1, cAMP readout; for Emax: OVCAR 5 cells, maximal cAMP relative to H2-relaxin
T1 construct: OVCAR5 cells expressing endogenous RXFP1; endogenous in cells; host or cells: OVCAR5
T1 sequence (Q9HBX9 1-757): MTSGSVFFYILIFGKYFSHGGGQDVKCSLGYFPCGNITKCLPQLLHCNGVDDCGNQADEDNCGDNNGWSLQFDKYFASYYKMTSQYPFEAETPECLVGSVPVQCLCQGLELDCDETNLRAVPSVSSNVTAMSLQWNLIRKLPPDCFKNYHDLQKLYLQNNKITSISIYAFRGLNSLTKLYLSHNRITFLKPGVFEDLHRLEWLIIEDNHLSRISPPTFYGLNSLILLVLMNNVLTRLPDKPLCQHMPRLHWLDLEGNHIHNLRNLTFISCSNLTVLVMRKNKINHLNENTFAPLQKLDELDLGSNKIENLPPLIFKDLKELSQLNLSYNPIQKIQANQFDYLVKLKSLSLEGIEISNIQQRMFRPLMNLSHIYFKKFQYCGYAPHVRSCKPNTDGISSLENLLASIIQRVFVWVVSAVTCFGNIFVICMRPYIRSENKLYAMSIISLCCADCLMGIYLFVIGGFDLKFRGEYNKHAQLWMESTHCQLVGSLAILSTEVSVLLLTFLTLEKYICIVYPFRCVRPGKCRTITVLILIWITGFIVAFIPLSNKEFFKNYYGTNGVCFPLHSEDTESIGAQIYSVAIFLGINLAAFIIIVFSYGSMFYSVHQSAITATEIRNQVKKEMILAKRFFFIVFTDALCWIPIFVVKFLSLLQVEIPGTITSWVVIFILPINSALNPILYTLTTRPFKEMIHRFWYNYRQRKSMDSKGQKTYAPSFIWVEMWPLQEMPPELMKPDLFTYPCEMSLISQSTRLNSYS
How it was run: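 Endogenous RXFP1 in OVCAR5 cells, pretreated 40 min at 37° C with 1 mM IBMX, then exposed to increasing peptide concentrations in serum-free medium for 30 min at 37° C. cAMP read by HTRF; EC50 by variable-slope sigmoidal fit, Emax as % of H2-relaxin maximal cAMP in same run.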

[2] = acetate buffer 50 mM pH 4.5, read-out: Solubility Acetate buffer pH 4.5
[3] = phosphate buffer 50 mM pH 7.4, read-out: Solubility phosphate buffer pH 7.4

SMILES | solubility [1, 2] [µg/mL] | solubility [1, 3] [µg/mL] | EC50 (RXFP1) [nM] | Emax (RXFP1) [%]
CCCCCCCCCCCCCCCC(=O)N[C@@H](CCC(=O)N[C@@H](CCC(=O)N[C@@H](CCC(=O)NCCCOCCOCCOCCCNC(=O)CCC(=O)NCCCOCCOCCOCCCNC(=O)CCC(=O)NCCCC[C@H](NC(=O)CNC(=O)[C@H](CCC(=O)O)NC(=O)C(C)(C)NC(=O)C(C)(C)NC(=O)[C@@H](NC(=O)[C@H](CCCCNC(C)=O)NC(=O)[C@H](C)NC(=O)[C@H](CCCNC(=N)N)NC(=O)[C@@H](NC(=O)[C@H](CCCCN)NC(=O)[C@H](CCC(=O)O)NC(=O)[C@H](CCCNC(=N)N)NC(=O)CNC(=O)[C@H](CCC(=O)O)NC(=O)[C@H](CC(C)C)NC(C)=O)C(C)C)[C@@H](C)CC)C(=O)N[C@@H](CO)C(=O)N[C@H](C(=O)N[C@@H](Cc1c[nH]c2ccccc12)C(=O)N[C@@H](CO)C(=O)N[C@H](CCCCN)C(=O)N[C@@H](CCCNC(=N)N)C(=O)N[C@@H](CCCCN)C(=O)N[C@@H](CCCCNC(C)=O)C(N)=O)[C@@H](C)O)C(=O)O)C(=O)O)C(=O)O [compound 18] (Ac-LEGREKVRAK(Ac)I[Aib][Aib]EGK([Suc-X2])STWS[dK]RKK(Ac)-NH2) | 6750 (≈ 1630 µM) | 6580 (≈ 1590 µM) | 1.54 | 92
CCCCCCCCCCCCCCCC(=O)N[C@@H](CCC(=O)N[C@@H](CCC(=O)N[C@@H](CCC(=O)NCCCOCCOCCOCCCNC(=O)CCC(=O)NCCCOCCOCCOCCCNC(=O)CCC(=O)NCCCOCCOCCOCCCNC(=O)CCC(=O)NCCCC[C@H](NC(=O)CNC(=O)[C@H](CCC(=O)O)NC(=O)[C@@H](NC(=O)C(C)(C)NC(=O)[C@@H](NC(=O)[C@H](CCCCNC(C)=O)NC(=O)[C@H](C)NC(=O)[C@H](CCCNC(=N)N)NC(=O)[C@@H](NC(=O)[C@H](CCCCN)NC(=O)[C@H](CCC(=O)O)NC(=O)[C@H](CCCNC(=N)N)NC(=O)CNC(=O)[C@H](CCC(=O)O)NC(=O)[C@H](CC(C)C)NC(C)=O)C(C)C)[C@@H](C)CC)[C@@H](C)CC)C(=O)N[C@@H](CO)C(=O)N[C@H](C(=O)N[C@@H](Cc1c[nH]c2ccccc12)C(=O)N[C@@H](CO)C(=O)NC(C)(C)C(=O)N[C@@H](CCCNC(=N)N)C(=O)N[C@@H](CCCCN)C(=O)N[C@@H](CCCCNC(C)=O)C(N)=O)[C@@H](C)O)C(=O)O)C(=O)O)C(=O)O [compound 70] (Ac-LEGREKVRAK(Ac)I[Aib]IEGK([Suc-X1])STWS[Aib]RKK(Ac)-NH2) | 8240 (≈ 1860 µM) | 9680 (≈ 2190 µM) | 1.34 | 94
CCCCCCCCCCCCCCCC(=O)N[C@@H](CCC(=O)N[C@@H](CCC(=O)N[C@@H](CCC(=O)NCCCOCCOCCOCCCNC(=O)CCC(=O)NCCCOCCOCCOCCCNC(=O)CCC(=O)NCCCOCCOCCOCCCNC(=O)CCC(=O)NCCCC[C@H](NC(=O)CNC(=O)[C@H](CCC(=O)O)NC(=O)C(C)(C)NC(=O)C(C)(C)NC(=O)[C@@H](NC(=O)[C@H](CCCCNC(C)=O)NC(=O)[C@H](C)NC(=O)[C@H](CCCNC(=N)N)NC(=O)[C@@H](NC(=O)[C@H](CCCCN)NC(=O)[C@H](CCC(=O)O)NC(=O)[C@H](CCCNC(=N)N)NC(=O)CNC(=O)[C@H](CCC(=O)O)NC(=O)[C@H](CC(C)C)NC(C)=O)C(C)C)[C@@H](C)CC)C(=O)N[C@@H](CO)C(=O)N[C@H](C(=O)N[C@@H](Cc1c[nH]c2ccccc12)C(=O)N[C@@H](CO)C(=O)NC(C)(C)C(=O)N[C@@H](CCCNC(=N)N)C(=O)N[C@@H](C)C(=O)N[C@@H](CCCCN)C(N)=O)[C@@H](C)O)C(=O)O)C(=O)O)C(=O)O [compound 71] (Ac-LEGREKVRAK(Ac)I[Aib][Aib]EGK([Suc-X1])STWS[Aib]RAK-NH2) | 8280 (≈ 1930 µM) | 8770 (≈ 2040 µM) | 0.36 | 95

Next, values leading:

solubility [1, 2] [µg/mL] | solubility [1, 3] [µg/mL] | EC50 (RXFP1) [nM] | Emax (RXFP1) [%] | SMILES
6680 (≈ 1640 µM) | 6760 (≈ 1660 µM) | 0.43 | 96 | CCCCCCCCCCCCCCCCCC(=O)N[C@@H](CCC(=O)N[C@@H](CCC(=O)N[C@@H](CCC(=O)NCCOCCOCC(=O)NCCOCCOCC(=O)NCCOCCOCC(=O)NCCOCCOCC(=O)NCCCC[C@H](NC(=O)CNC(=O)[C@H](CCC(=O)O)NC(=O)C(C)(C)NC(=O)C(C)(C)NC(=O)[C@@H](NC(=O)[C@H](CCCCNC(C)=O)NC(=O)[C@H](C)NC(=O)[C@H](CCCNC(=N)N)NC(=O)[C@@H](NC(=O)[C@H](CCCCN)NC(=O)[C@H](CCC(=O)O)NC(=O)[C@H](CCCNC(=N)N)NC(=O)CNC(=O)[C@H](CCC(=O)O)NC(=O)[C@H](CC(C)C)NC(C)=O)C(C)C)[C@@H](C)CC)C(=O)N[C@@H](CO)C(=O)N[C@H](C(=O)N[C@@H](Cc1ccccc1)C(=O)N[C@@H](CO)C(=O)N[C@@](C)(CCCCN)C(=O)N[C@@H](CCCNC(=N)N)C(=O)N[C@@H](C)C(=O)N[C@@H](CCCCNC(C)=O)C(N)=O)[C@@H](C)O)C(=O)O)C(=O)O)C(=O)O [compound 26] (Ac-LEGREKVRAK(Ac)I[Aib][Aib]EGK([AEEA-AEEA-AEEA-AEEA-γGlu-γGlu-γGlu-Stearoyl])STFS[αMeK]RAK(Ac)-NH2)
550 (≈ 127 µM) | 6770 (≈ 1560 µM) | 11.1 | 92 | CCCCCCCCCCCCCCCC(=O)N[C@@H](CCC(=O)N[C@@H](CCC(=O)N[C@@H](CCC(=O)NCCCOCCOCCOCCCNC(=O)CCC(=O)NCCCOCCOCCOCCCNC(=O)CCC(=O)NCCCOCCOCCOCCCNC(=O)CCC(=O)NCCCC[C@H](NC(=O)CNC(=O)[C@H](CCC(=O)O)NC(=O)C(C)(C)NC(=O)C(C)(C)NC(=O)[C@@H](NC(=O)[C@H](CCCCNC(C)=O)NC(=O)[C@H](C)NC(=O)[C@H](CCCNC(=N)N)NC(=O)[C@@H](NC(=O)[C@H](CC(C)C)NC(=O)[C@H](CCC(=O)O)NC(=O)[C@H](CCCNC(=N)N)NC(=O)CNC(=O)[C@H](CCC(=O)O)NC(=O)[C@H](CC(C)C)NC(C)=O)C(C)C)[C@@H](C)CC)C(=O)N[C@@H](CO)C(=O)N[C@H](C(=O)N[C@@H](Cc1ccccc1)C(=O)N[C@@H](CO)C(=O)N[C@@](C)(CCCCN)C(=O)N[C@@H](CCCNC(=N)N)C(=O)N[C@@H](C)C(=O)N[C@@H](CCCCNC(C)=O)C(N)=O)[C@@H](C)O)C(=O)O)C(=O)O)C(=O)O [compound 23] (Ac-LEGRELVRAK(Ac)I[Aib][Aib]EGK([Suc-X1])STFS[αMeK]RAK(Ac)-NH2)
6280 (≈ 1530 µM) | 6590 (≈ 1610 µM) | 0.65 | 93 | CCCCCCCCCCCCCCCCCC(=O)N[C@@H](CCC(=O)N[C@@H](CCC(=O)N[C@@H](CCC(=O)NCCOCCOCC(=O)NCCOCCOCC(=O)NCCOCCOCC(=O)NCCOCCOCC(=O)NCCCC[C@H](NC(=O)CNC(=O)[C@H](CCC(=O)O)NC(=O)C(C)(C)NC(=O)C(C)(C)NC(=O)[C@@H](NC(=O)[C@H](CCCCNC(C)=O)NC(=O)[C@H](C)NC(=O)[C@H](CCCNC(=N)N)NC(=O)[C@@H](NC(=O)[C@H](CCCCN)NC(=O)[C@H](CCC(=O)O)NC(=O)[C@H](CCCNC(=N)N)NC(=O)CNC(=O)[C@H](CCC(=O)O)NC(=O)[C@H](CC(C)C)NC(C)=O)C(C)C)[C@@H](C)CC)C(=O)N[C@@H](CO)C(=O)N[C@H](C(=O)N[C@@H](Cc1c[nH]c2ccccc12)C(=O)N[C@@H](CO)C(=O)NC(C)(C)C(=O)N[C@@H](CCCNC(=N)N)C(=O)N[C@@H](CCCCN)C(=O)N[C@@H](CCCCNC(C)=O)C(N)=O)[C@@H](C)O)C(=O)O)C(=O)O)C(=O)O [compound 21] (Ac-LEGREKVRAK(Ac)I[Aib][Aib]EGK([AEEA-AEEA-AEEA-AEEA-γGlu-γGlu-γGlu-Stearoyl])STWS[Aib]RKK(Ac)-NH2)
